Values quoted from earlier work in publication PMC4291083, “Ex Vivo Characterization of a Novel Iodine-123-Labelled Aminomethylchroman as a Potential Agonist Ligand for SPECT Imaging of Dopamine D2/3 Receptors” (International Journal of Molecular Imaging, 2014).

Tests used:
Set-up in all cases: method as in PMID 24325578
[1] = system: dopamine D4 receptor; details: in vitro; cited from earlier work
[2] = target: D1 receptor; details: in vitro; cited from earlier work
[3] = target: D2 low; details: in vitro; cited from earlier work
[4] = system: D2 receptor; details: agonism D2 receptor, cited from earlier work
[5] = target: D2 high; details: in vitro; cited from earlier work

(R) N-[7-hydroxychroman-2-yl]-methyl 4-iodobenzyl amine [compound 1]
binding affinity to dopamine D4 receptor [1]: binds with high-affinity
Ki [2]: 8670 nM
Ki [3]: 51.8 nM
Emax ([4]; cAMP): 86 % of dopamine
pEC50 cAMP [4]: 9.2 ± 0.4
Ki [5]: 3.79 nM
